{"source": "patent US20090075937A1", "about": "“LHRH ANTAGONISTS FOR THE TREATMENT OF LOWER URINARY TRACT SYMPTOMS” (AETERNA ZENTARIS GmbH, priority 2007, published 2009)", "key": {"[1]": {"test_system": "testosterone blood levels", "assay": "Median testosterone blood levels / chemical (hormonal) castration", "settings": "blood level", "protocol": "Preferably, chemical (hormonal) castration is a testosterone castration and refers to a testosterone blood level of equal or below 1.2 ng/mL, preferably 0.5 ng/mL.\nStudy subjects were treated with Cetrorelix pamoate with the following doses according to the following administration schemes: • 60 mg Cetrorelix pamaote administered at week 0 and 30 mg Cetrorelix pamaote administered at week 2 (treatment period) followed by up to 5 months of no treatment (treatment-free period) • 60 mg Cetrorelix pamaote administered at week 0 and 60 mg Cetrorelix pamaote administered at week 2 (treatment period) followed by up to 5 months of no treatment (treatment-free period)\nStudy subjects were treated with Cetrorelix acetate with the following doses according to the following administration schemes: • 5 mg Cetrorelix acetate administered at week 0, 1, 2 and 3 (total monthly dose of 20 mg) (treatment period) followed by up to 4 months of no treatment (treatment-free period) • 10 mg Cetrorelix acetate administered at week 0 and 10 mg Cetrorelix acetate administered at week 2 (treatment period) followed by up to 4 months of no treatment (treatment-free period) • 10 mg Cetrorelix acetate administered at week 0, 1, 2 and 3 (total monthly dose of 40 mg) (treatment period) followed by up to 4 months of no treatment (treatment-free period)\nStudy subjects were treated with Ozarelix with the following doses according to the following administration schemes: • 15 mg Ozarelix administered at week 0 and 15 mg Ozarelix administered at week 2 (treatment period) followed by up to 4 months of no treatment (treatment-free period)"}, "[2]": {"test_system": "study subjects", "assay": "IPSS irritative subscore (sum of nocturia, frequency of emptying and urgency to urinate)", "type": "in vivo, human", "settings": "for IPSS irritative subscore (nocturia, frequency of emptying, urgency to urinate): percentage variation from baseline", "source_text": "(§1) The results shown are percentage variations from baseline at the beginning of the study (week 0)."}, "[3]": {"test_system": "study subjects", "assay": "Frequency of emptying: how often the study subjects had to urinate a second time within a 2 hour test period", "type": "in vivo, human", "source_text": "as §1\nThe results shown are mean values, how often the study subjects had to urinate a second time."}, "[4]": {"test_system": "study subjects", "assay": "Nocturia: how often the study subjects got up during the night in order to urinate", "type": "in vivo, human", "source_text": "as §1\nThe results shown are mean values, how often the study subjects had to get up."}, "[5]": {"settings": "60 + 30: 60 mg week 0, 30 mg week 2, Week 0"}, "[6]": {"settings": "60 + 30: 60 mg week 0, 30 mg week 2, Week 4"}, "[7]": {"settings": "60 + 30: 60 mg week 0, 30 mg week 2, Week 8"}, "[8]": {"settings": "60 + 30: 60 mg week 0, 30 mg week 2, Week 12"}, "[9]": {"settings": "60 + 30: 60 mg week 0, 30 mg week 2, Week 16"}, "[10]": {"settings": "60 + 30: 60 mg week 0, 30 mg week 2, Week 20"}, "[11]": {"settings": "60 + 30: 60 mg week 0, 30 mg week 2, Week 24"}, "[12]": {"settings": "60 + 60: 60 mg week 0, 60 mg week 2, Week 0"}, "[13]": {"settings": "60 + 60: 60 mg week 0, 60 mg week 2, Week 4"}, "[14]": {"settings": "60 + 60: 60 mg week 0, 60 mg week 2, Week 8"}, "[15]": {"settings": "60 + 60: 60 mg week 0, 60 mg week 2, Week 12"}, "[16]": {"settings": "60+30 mg and 60+60 mg schemes, largest difference over weeks 4-24"}, "[17]": {"settings": "60 + 60: 60 mg week 0, 60 mg week 2, Week 16"}, "[18]": {"settings": "60 + 60: 60 mg week 0, 60 mg week 2, Week 20"}, "[19]": {"settings": "60 + 60: 60 mg week 0, 60 mg week 2, Week 24"}}, "data": [{"substance": "Cetrorelix pamoate", "values": [{"measurement": "Testosterone [ng/mL] (median)", "setting": "[1]; [5]", "result": 3.96, "unit": "ng/mL"}, {"measurement": "Testosterone [ng/mL] (median)", "setting": "[1]; [6]", "result": 2.59, "unit": "ng/mL"}, {"measurement": "Testosterone [ng/mL] (median)", "setting": "[1]; [7]", "result": 4.01, "unit": "ng/mL"}, {"measurement": "Testosterone [ng/mL] (median)", "setting": "[1]; [8]", "result": 4.10, "unit": "ng/mL"}, {"measurement": "Testosterone [ng/mL] (median)", "setting": "[1]; [9]", "result": 3.96, "unit": "ng/mL"}, {"measurement": "Testosterone [ng/mL] (median)", "setting": "[1]; [10]", "result": 4.12, "unit": "ng/mL"}, {"measurement": "Testosterone [ng/mL] (median)", "setting": "[1]; [11]", "result": 4.30, "unit": "ng/mL"}, {"measurement": "Testosterone [ng/mL] (median)", "setting": "[1]; [12]", "result": 3.71, "unit": "ng/mL"}, {"measurement": "Testosterone [ng/mL] (median)", "setting": "[1]; [13]", "result": 2.19, "unit": "ng/mL"}, {"measurement": "Testosterone [ng/mL] (median)", "setting": "[1]; [14]", "result": 3.70, "unit": "ng/mL"}, {"measurement": "Testosterone [ng/mL] (median)", "setting": "[1]; [15]", "result": 3.73, "unit": "ng/mL"}, {"measurement": "further decrease in IPSS irritative subscore compared to placebo", "setting": "[2]; [16]", "result": "up to 30%"}, {"measurement": "IPSS irritative subscore (nocturia, frequency of emptying, urgency to urinate)", "setting": "[2]; [5]", "result": 0, "unit": "%"}, {"measurement": "IPSS irritative subscore (nocturia, frequency of emptying, urgency to urinate)", "setting": "[2]; [6]", "result": "−14.8", "unit": "%"}, {"measurement": "IPSS irritative subscore (nocturia, frequency of emptying, urgency to urinate)", "setting": "[2]; [7]", "result": "−33.3", "unit": "%"}, {"measurement": "IPSS irritative subscore (nocturia, frequency of emptying, urgency to urinate)", "setting": "[2]; [8]", "result": "−29.3", "unit": "%"}, {"measurement": "IPSS irritative subscore (nocturia, frequency of emptying, urgency to urinate)", "setting": "[2]; [9]", "result": "−33.3", "unit": "%"}, {"measurement": "IPSS irritative subscore (nocturia, frequency of emptying, urgency to urinate)", "setting": "[2]; [10]", "result": "−33.3", "unit": "%"}, {"measurement": "IPSS irritative subscore (nocturia, frequency of emptying, urgency to urinate)", "setting": "[2]; [11]", "result": "−38", "unit": "%"}, {"measurement": "IPSS irritative subscore (nocturia, frequency of emptying, urgency to urinate)", "setting": "[2]; [12]", "result": 0, "unit": "%"}, {"measurement": "IPSS irritative subscore (nocturia, frequency of emptying, urgency to urinate)", "setting": "[2]; [13]", "result": "−16.7", "unit": "%"}, {"measurement": "IPSS irritative subscore (nocturia, frequency of emptying, urgency to urinate)", "setting": "[2]; [14]", "result": "−25", "unit": "%"}, {"measurement": "IPSS irritative subscore (nocturia, frequency of emptying, urgency to urinate)", "setting": "[2]; [15]", "result": "−25", "unit": "%"}, {"measurement": "IPSS irritative subscore (nocturia, frequency of emptying, urgency to urinate)", "setting": "[2]; [17]", "result": "−25", "unit": "%"}, {"measurement": "IPSS irritative subscore (nocturia, frequency of emptying, urgency to urinate)", "setting": "[2]; [18]", "result": "−27.6", "unit": "%"}, {"measurement": "IPSS irritative subscore (nocturia, frequency of emptying, urgency to urinate)", "setting": "[2]; [19]", "result": "−40", "unit": "%"}, {"measurement": "further decrease in frequency (of emptying) compared to placebo", "setting": "[3]; [16]", "result": "up to 29%"}, {"measurement": "Frequency of emptying (percentage variation from baseline)", "setting": "[3]; [5]", "result": 0, "unit": "%"}, {"measurement": "Frequency of emptying (percentage variation from baseline)", "setting": "[3]; [6]", "result": "−9", "unit": "%"}, {"measurement": "Frequency of emptying (percentage variation from baseline)", "setting": "[3]; [7]", "result": "−19", "unit": "%"}, {"measurement": "Frequency of emptying (percentage variation from baseline)", "setting": "[3]; [8]", "result": "−20", "unit": "%"}, {"measurement": "Frequency of emptying (percentage variation from baseline)", "setting": "[3]; [9]", "result": "−26", "unit": "%"}, {"measurement": "Frequency of emptying (percentage variation from baseline)", "setting": "[3]; [10]", "result": "−27", "unit": "%"}, {"measurement": "Frequency of emptying (percentage variation from baseline)", "setting": "[3]; [11]", "result": "−31", "unit": "%"}, {"measurement": "Frequency of emptying (percentage variation from baseline)", "setting": "[3]; [12]", "result": 0, "unit": "%"}, {"measurement": "Frequency of emptying (percentage variation from baseline)", "setting": "[3]; [13]", "result": "−16", "unit": "%"}, {"measurement": "Frequency of emptying (percentage variation from baseline)", "setting": "[3]; [14]", "result": "−25", "unit": "%"}, {"measurement": "Frequency of emptying (percentage variation from baseline)", "setting": "[3]; [15]", "result": "−24", "unit": "%"}, {"measurement": "Frequency of emptying (percentage variation from baseline)", "setting": "[3]; [17]", "result": "−29", "unit": "%"}, {"measurement": "Frequency of emptying (percentage variation from baseline)", "setting": "[3]; [18]", "result": "−25", "unit": "%"}, {"measurement": "Frequency of emptying (percentage variation from baseline)", "setting": "[3]; [19]", "result": "−34", "unit": "%"}, {"measurement": "further decrease in nocturia frequency compared to placebo", "setting": "[4]; [16]", "result": "up to 11%"}, {"measurement": "Nocturia (percentage variation from baseline)", "setting": "[4]; [5]", "result": 0, "unit": "%"}, {"measurement": "Nocturia (percentage variation from baseline)", "setting": "[4]; [6]", "result": "−14", "unit": "%"}, {"measurement": "Nocturia (percentage variation from baseline)", "setting": "[4]; [7]", "result": "−26", "unit": "%"}, {"measurement": "Nocturia (percentage variation from baseline)", "setting": "[4]; [8]", "result": "−27", "unit": "%"}, {"measurement": "Nocturia (percentage variation from baseline)", "setting": "[4]; [9]", "result": "−27", "unit": "%"}, {"measurement": "Nocturia (percentage variation from baseline)", "setting": "[4]; [10]", "result": "−33", "unit": "%"}, {"measurement": "Nocturia (percentage variation from baseline)", "setting": "[4]; [11]", "result": "−26", "unit": "%"}, {"measurement": "Nocturia (percentage variation from baseline)", "setting": "[4]; [12]", "result": 0, "unit": "%"}, {"measurement": "Nocturia (percentage variation from baseline)", "setting": "[4]; [13]", "result": "−17", "unit": "%"}, {"measurement": "Nocturia (percentage variation from baseline)", "setting": "[4]; [14]", "result": "−26", "unit": "%"}, {"measurement": "Nocturia (percentage variation from baseline)", "setting": "[4]; [15]", "result": "−30", "unit": "%"}, {"measurement": "Nocturia (percentage variation from baseline)", "setting": "[4]; [17]", "result": "−25", "unit": "%"}, {"measurement": "Nocturia (percentage variation from baseline)", "setting": "[4]; [18]", "result": "−27", "unit": "%"}, {"measurement": "Nocturia (percentage variation from baseline)", "setting": "[4]; [19]", "result": "−29", "unit": "%"}]}]}
